Results reported in the supplement of paper PMC4862054.
Several values for one entry are separate records, joined by “and”; a condition that tells them apart may be missing. Identical values can stand only once.

tested on: MDA-MB-453; assay: normalised viability (% of control), CellTiter-Blue; higher = more viable cells (about 100 = DMSO control); details: 1 nM; incubation time: 72 h
Description: (§1)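 DSRT, CellTiter-Blue viability, 72 h incubation. Signal is normalised to DMSO and benzethonium chloride controls. Value is the normalised response at dose 3.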

| Compound | normalised viability |
| --- | --- |
| C[C@]12O[C@H](C[C@]1(O)CO)n1c3ccccc3c3c4c(c5c6ccccc6n2c5c31)CNC4=O [Lestaurtinib] | 98.7% |
| O=C1c2c(O)ccc(O)c2C(=O)c2c(NCCNCCO)ccc(NCCNCCO)c21 [Mitoxantrone] | 84.8% |
| CCN(CC)CCNC(=O)c1c(C)[nH]c(/C=C2\C(=O)Nc3ccc(F)cc32)c1C [Sunitinib] | 89.4% and 98.1% |
| CC[C@@]1(O)C(=O)OCc2c1cc1n(c2=O)Cc2cc3c(CN(C)C)c(O)ccc3nc2-1 [Topotecan] | 101% |

same assay, conditions: 2.5 nM; incubation time: 72 h

| Compound | normalised viability |
| --- | --- |
| c1cc(CN2CCCNCCNCCCNCC2)ccc1CN1CCCNCCNCCCNCC1 [Plerixafor] | 106% |

same assay, conditions: 10 nM; incubation time: 72 h

| Compound | normalised viability |
| --- | --- |
| Nc1cccc2c1CN(C1CCC(=O)NC1=O)C2=O (stereo not given) [Lenalidomide] | 93% and 103% |
| Nc1ccccc1NC(=O)c1ccc(CNc2nccc(-c3cccnc3)n2)cc1 [Mocetinostat] | 94.2% |
| Cc1ccc(Nc2nccc(N(C)c3ccc4c(C)n(C)nc4c3)n2)cc1S(N)(=O)=O [Pazopanib] | 100% |
| O=C(CCBr)N1CCN(C(=O)CCBr)CC1 [Pipobroman] | 102% |
| C[C@]12C=CC(=O)C=C1CC[C@@H]1[C@@H]2[C@@H](O)C[C@@]2(C)[C@H]1CC[C@]2(O)C(=O)CO [Prednisolone] | 105% |

tested on: MDA-MB-468; assay: as above; details: 10 nM; incubation time: 72 h
Description: as §1

| Compound | normalised viability |
| --- | --- |
| C[C@]12O[C@H](C[C@]1(O)CO)n1c3ccccc3c3c4c(c5c6ccccc6n2c5c31)CNC4=O [Lestaurtinib] | 92.9% |
| O=C1c2c(O)ccc(O)c2C(=O)c2c(NCCNCCO)ccc(NCCNCCO)c21 [Mitoxantrone] | 80.4% |
| CCN(CC)CCNC(=O)c1c(C)[nH]c(/C=C2\C(=O)Nc3ccc(F)cc32)c1C [Sunitinib] | 100% and 107% |
| CC[C@@]1(O)C(=O)OCc2c1cc1n(c2=O)Cc2cc3c(CN(C)C)c(O)ccc3nc2-1 [Topotecan] | 93% |

same assay, conditions: 25 nM; incubation time: 72 h

| Compound | normalised viability |
| --- | --- |
| c1cc(CN2CCCNCCNCCCNCC2)ccc1CN1CCCNCCNCCCNCC1 [Plerixafor] | 98.5% |

same assay, conditions: 100 nM; incubation time: 72 h

| Compound | normalised viability |
| --- | --- |
| Nc1cccc2c1CN(C1CCC(=O)NC1=O)C2=O (stereo not given) [Lenalidomide] | 100% and 94.2% |
| Nc1ccccc1NC(=O)c1ccc(CNc2nccc(-c3cccnc3)n2)cc1 [Mocetinostat] | 129% |
| Cc1ccc(Nc2nccc(N(C)c3ccc4c(C)n(C)nc4c3)n2)cc1S(N)(=O)=O [Pazopanib] | 104% |
| O=C(CCBr)N1CCN(C(=O)CCBr)CC1 [Pipobroman] | 98% |
| C[C@]12C=CC(=O)C=C1CC[C@@H]1[C@@H]2[C@@H](O)C[C@@]2(C)[C@H]1CC[C@]2(O)C(=O)CO [Prednisolone] | 108% |

tested on: MFM-223; assay: as above; details: 10 nM; incubation time: 72 h
Description: as §1

| Compound | normalised viability |
| --- | --- |
| C[C@]12O[C@H](C[C@]1(O)CO)n1c3ccccc3c3c4c(c5c6ccccc6n2c5c31)CNC4=O [Lestaurtinib] | 107% |
| O=C1c2c(O)ccc(O)c2C(=O)c2c(NCCNCCO)ccc(NCCNCCO)c21 [Mitoxantrone] | 85.9% |
| CCN(CC)CCNC(=O)c1c(C)[nH]c(/C=C2\C(=O)Nc3ccc(F)cc32)c1C [Sunitinib] | 93.5% and 87.9% |
| CC[C@@]1(O)C(=O)OCc2c1cc1n(c2=O)Cc2cc3c(CN(C)C)c(O)ccc3nc2-1 [Topotecan] | 92.1% |

same assay, conditions: 25 nM; incubation time: 72 h

| Compound | normalised viability |
| --- | --- |
| c1cc(CN2CCCNCCNCCCNCC2)ccc1CN1CCCNCCNCCCNCC1 [Plerixafor] | 92.6% |

same assay, conditions: 100 nM; incubation time: 72 h

| Compound | normalised viability |
| --- | --- |
| Nc1cccc2c1CN(C1CCC(=O)NC1=O)C2=O (stereo not given) [Lenalidomide] | 91.3% and 90.2% |
| Nc1ccccc1NC(=O)c1ccc(CNc2nccc(-c3cccnc3)n2)cc1 [Mocetinostat] | 80.7% |
| Cc1ccc(Nc2nccc(N(C)c3ccc4c(C)n(C)nc4c3)n2)cc1S(N)(=O)=O [Pazopanib] | 71.7% |
| O=C(CCBr)N1CCN(C(=O)CCBr)CC1 [Pipobroman] | 98.8% |
| C[C@]12C=CC(=O)C=C1CC[C@@H]1[C@@H]2[C@@H](O)C[C@@]2(C)[C@H]1CC[C@]2(O)C(=O)CO [Prednisolone] | 97% |

tested on: SK-BR-3; assay: as above; details: 10 nM; incubation time: 72 h
Description: as §1

| Compound | normalised viability |
| --- | --- |
| C[C@]12O[C@H](C[C@]1(O)CO)n1c3ccccc3c3c4c(c5c6ccccc6n2c5c31)CNC4=O [Lestaurtinib] | 91.3% |
| O=C1c2c(O)ccc(O)c2C(=O)c2c(NCCNCCO)ccc(NCCNCCO)c21 [Mitoxantrone] | 75.6% |
| CCN(CC)CCNC(=O)c1c(C)[nH]c(/C=C2\C(=O)Nc3ccc(F)cc32)c1C [Sunitinib] | 85.7% and 80.3% |
| CC[C@@]1(O)C(=O)OCc2c1cc1n(c2=O)Cc2cc3c(CN(C)C)c(O)ccc3nc2-1 [Topotecan] | 85.5% |

same assay, conditions: 25 nM; incubation time: 72 h

| Compound | normalised viability |
| --- | --- |
| c1cc(CN2CCCNCCNCCCNCC2)ccc1CN1CCCNCCNCCCNCC1 [Plerixafor] | 84.3% |

same assay, conditions: 100 nM; incubation time: 72 h

| Compound | normalised viability |
| --- | --- |
| Nc1cccc2c1CN(C1CCC(=O)NC1=O)C2=O (stereo not given) [Lenalidomide] | 73.6% and 88.2% |
| Nc1ccccc1NC(=O)c1ccc(CNc2nccc(-c3cccnc3)n2)cc1 [Mocetinostat] | 83.9% |
| Cc1ccc(Nc2nccc(N(C)c3ccc4c(C)n(C)nc4c3)n2)cc1S(N)(=O)=O [Pazopanib] | 78.7% |
| O=C(CCBr)N1CCN(C(=O)CCBr)CC1 [Pipobroman] | 108% |
| C[C@]12C=CC(=O)C=C1CC[C@@H]1[C@@H]2[C@@H](O)C[C@@]2(C)[C@H]1CC[C@]2(O)C(=O)CO [Prednisolone] | 60.8% |

tested on: BT-549; assay: drug sensitivity score (DSS), CellTox Green (DSS (AUC-based score)); higher = stronger drug effect (viability inhibition or cytotoxicity); extreme values may be limits of the assay; details: incubation time: 72 h
How it was run: (§2)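 Breast cancer cell lines (20 µl suspension) were seeded into 384-well plates holding compound at 5 concentrations in 10-fold steps over a compound-specific 10,000-fold range, then incubated 72 h. CellTox Green fluorescence (485/520 nm) was read first, then CellTiter-Glo luminescence after 10 min at room temperature. Each plate was normalised to 0.1 % DMSO and a positive kill control. The drug sensitivity score was calculated from the area under the fitted dose-response curve.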

| Compound | drug sensitivity score |
| --- | --- |
| Nc1cccc2c1CN(C1CCC(=O)NC1=O)C2=O (stereo not given) [Lenalidomide] | 0 |
| C[C@]12O[C@H](C[C@]1(O)CO)n1c3ccccc3c3c4c(c5c6ccccc6n2c5c31)CNC4=O [Lestaurtinib] | 2.26 |
| O=C1c2c(O)ccc(O)c2C(=O)c2c(NCCNCCO)ccc(NCCNCCO)c21 [Mitoxantrone] | 0 |
| Nc1ccccc1NC(=O)c1ccc(CNc2nccc(-c3cccnc3)n2)cc1 [Mocetinostat] | 1.91 |
| Cc1ccc(Nc2nccc(N(C)c3ccc4c(C)n(C)nc4c3)n2)cc1S(N)(=O)=O [Pazopanib] | 0 |
| O=C(CCBr)N1CCN(C(=O)CCBr)CC1 [Pipobroman] | 0 |
| c1cc(CN2CCCNCCNCCCNCC2)ccc1CN1CCCNCCNCCCNCC1 [Plerixafor] | 0 |
| C[C@]12C=CC(=O)C=C1CC[C@@H]1[C@@H]2[C@@H](O)C[C@@]2(C)[C@H]1CC[C@]2(O)C(=O)CO [Prednisolone] | 0 |
| CCN(CC)CCNC(=O)c1c(C)[nH]c(/C=C2\C(=O)Nc3ccc(F)cc32)c1C [Sunitinib] | 0 |
| CC[C@@]1(O)C(=O)OCc2c1cc1n(c2=O)Cc2cc3c(CN(C)C)c(O)ccc3nc2-1 [Topotecan] | 0 |

tested on: CAL-85-1; assay: as above; details: incubation time: 72 h
How it was run: as §2

| Compound | drug sensitivity score |
| --- | --- |
| Nc1cccc2c1CN(C1CCC(=O)NC1=O)C2=O (stereo not given) [Lenalidomide] | 0 |
| C[C@]12O[C@H](C[C@]1(O)CO)n1c3ccccc3c3c4c(c5c6ccccc6n2c5c31)CNC4=O [Lestaurtinib] | 5.21 |
| O=C1c2c(O)ccc(O)c2C(=O)c2c(NCCNCCO)ccc(NCCNCCO)c21 [Mitoxantrone] | 0 |
| Nc1ccccc1NC(=O)c1ccc(CNc2nccc(-c3cccnc3)n2)cc1 [Mocetinostat] | 7.11 |
| Cc1ccc(Nc2nccc(N(C)c3ccc4c(C)n(C)nc4c3)n2)cc1S(N)(=O)=O [Pazopanib] | 0.186 |
| O=C(CCBr)N1CCN(C(=O)CCBr)CC1 [Pipobroman] | 0 |
| c1cc(CN2CCCNCCNCCCNCC2)ccc1CN1CCCNCCNCCCNCC1 [Plerixafor] | 0 |
| C[C@]12C=CC(=O)C=C1CC[C@@H]1[C@@H]2[C@@H](O)C[C@@]2(C)[C@H]1CC[C@]2(O)C(=O)CO [Prednisolone] | 0 |
| CCN(CC)CCNC(=O)c1c(C)[nH]c(/C=C2\C(=O)Nc3ccc(F)cc32)c1C [Sunitinib] | 0 |
| CC[C@@]1(O)C(=O)OCc2c1cc1n(c2=O)Cc2cc3c(CN(C)C)c(O)ccc3nc2-1 [Topotecan] | 7.11 |

tested on: DU-4475; assay: as above; details: incubation time: 72 h
How it was run: as §2

| Compound | drug sensitivity score |
| --- | --- |
| Nc1cccc2c1CN(C1CCC(=O)NC1=O)C2=O (stereo not given) [Lenalidomide] | 0 |
| C[C@]12O[C@H](C[C@]1(O)CO)n1c3ccccc3c3c4c(c5c6ccccc6n2c5c31)CNC4=O [Lestaurtinib] | 0 |
| O=C1c2c(O)ccc(O)c2C(=O)c2c(NCCNCCO)ccc(NCCNCCO)c21 [Mitoxantrone] | 0 |
| Nc1ccccc1NC(=O)c1ccc(CNc2nccc(-c3cccnc3)n2)cc1 [Mocetinostat] | 0 |
| Cc1ccc(Nc2nccc(N(C)c3ccc4c(C)n(C)nc4c3)n2)cc1S(N)(=O)=O [Pazopanib] | 0 |
